Measurements reported in patent publication US9700578B2, “Use of nitrite salts for the treatment of cardiovascular conditions” (The United States of America as represented by the …, priority 2003, dated 2017).

How the values were obtained:
forearm circulation = experiment: Sodium nitrite infusion into the brachial artery, forearm blood flow by venous-occlusion plethysmography; details: 8 μmol/min into brachial artery for 5 minutes
From the text: The protocol was approved by the Institutional Review Board of the National Heart, Lung and Blood Institute, and informed consent was obtained from all volunteer subjects. […] An additional 10 subjects returned three-six months later for a second series of experiments with low dose nitrite infusion. […] No volunteer subject was allowed to take any medication (oral contraceptive agents allowed), vitamin supplements, herbal preparations, nutriceuticals or other “alternative therapies” for at least one month prior to study and were not be allowed to take aspirin for one week prior to study.
Brachial artery and antecubital vein catheters were placed into the arm, with the intraarterial catheter connected to a pressure transducer for blood pressure measurements and an infusion pump delivering normal saline at 1 mL/min. After 20 minutes of rest, baseline arterial and venous blood samples were obtained and forearm blood flow measurements were made by strain gauge venous-occlusion plethysmography, as previously reported (Panza et al., Circulation, 87, 1468-74, 1993). A series of 7 blood flow measurements were averaged for each blood flow determination. A series of measurements termed Parts I and II were performed in randomized order to minimize a time effect on the forearm blood flow response during nitrite infusion.
Part I: Following 20 minutes of 0.9% NaCl (saline) solution infusion at 1 mL/min into the brachial artery, arterial and venous blood samples were obtained for the assays described below and forearm blood flow measured. Exercise was performed by repetitive hand-grip at one-third of the predetermined maximum grip strength using a hand-grip dynamometer (Technical Products Co.) (Gladwin et al., Proc Natl Acad Sci USA, 97, 9943-8, 2000; Gladwin et al., Proc Natl Acad Sci USA, 97, 11482-11487, 2000; Cannon et al., J Clin Invest, 108, 279-87, 2001). Each contraction lasted for 10 seconds followed by relaxation for 5 seconds. Following 5 minutes of exercise, forearm blood flow measurements were obtained during relaxation phases of exercise, and arterial and venous samples collected. Following a 20-minute rest period with continued infusion of saline into the brachial artery, repeated baseline blood samples and forearm blood flow measurements were obtained. L-NMMA was then infused at a rate of 1 mL/min (8 μmol/min) into the brachial artery. Following 5 minutes of L-NMMA infusion, forearm blood flow was measured, and arterial and venous blood samples obtained. Forearm exercise was then initiated in that arm during continued L-NMMA infusion. Forearm blood flow was measured and blood samples obtained after 5 minutes of exercise during continued L-NMMA infusion (FIG. 1).
Part II: After a 30 minute rest period with continued infusion of saline, baseline measurements were obtained, the saline infusion was then stopped, and infusion of nitrite (NaNO2 36 μmol/ml in 0.9% saline) at 1 ml/min was started. […] For the final 9 subjects studied, 0.01-0.03 mM sodium bicarbonate was added to the normal saline, so as to titrate pH to 7.0-7.4. The nitrite solution was light protected and nitrite levels and free NO gas in solution measured by reductive chemiluminescence after all experiments (Gladwin et al., J Biol Chem, 21, 21, 2002).

[1] = tested on: hypoxic-induced pulmonary hypertension; experiment: Comparison of inhaled nitrite and NO gas during hypoxic-induced pulmonary vasoconstriction: efficacy and duration; type: in vivo, newborn lambs; details: hypoxia
From the text: NO gas was introduced into the inspiratory limb of the breathing circuit. The inspired concentration of NO was continuously measured by chemiluminescence (CLD 700 AL, Eco Physics Inc, Ann Arbor, Mich.) in the inspiratory limb of the ventilator loop.
efficacy and duration of effect. This protocol was designed to compare the efficacy of nitrite with the clinical standard, 20 ppm inhaled NO gas. […] A second purpose was to determine the duration of effect of a short nitrite nebulization versus NO gas inhalation on hemodynamic and physiological measurements during prolonged hypoxic-induced pulmonary vasoconstriction. After baseline measurements were performed, the lambs were made hypoxic as described above for 35 minutes. Ten minutes after initiation of hypoxia, a 20-minute period of NO gas inhalation was initiated (20 ppm), with continuation of hypoxia for 5 minutes after cessation of NO gas delivery. Lambs were then allowed to recover for one hour. Again, after baseline measurements were made, a second 90-minute period of hypoxia was initiated.

[2] = tested on: hepatic ischemia-reperfusion injury; experiment: Hepatic ischemia-reperfusion (I/R) injury; type: in vivo, mice
Method: Carboxy-PTIO [2-(4-Carboxyphenyl)-4,4,5,5-tetramethylimidazoline-1-oxyl-3-oxide potassium salt], a direct intravascular NO scavenger, was utilized to inhibit NO dependent effects following hepatic I/R injury. Carboxy-PTIO (Alexis Biochemicals) was dissolved in phosphate buffered saline and administered intravenously at a dose of 1 mg/Kg in a volume of 50 μL at 30 minutes prior to hepatic ischemia Zinc(II) Deuteroporphyrin IX-2,4-bisethyleneglycol (ZnDBG) (Alexis Biochemicals), a heme oxygenase-1 inhibitor was injected i.p. at a dose of 10 mg/Kg in a volume of 50 μL at 30 minutes prior to the induction of hepatic ischemia.
All of the mice utilized in the present studies were C57BL6/J at 8-10 weeks of age obtained from the Jackson Laboratories (Bar Harbor, Me.). In additional experiments of hepatic I/R injury we utilized mice completely deficient (−/−) in endothelial nitric oxide synthase (eNOS). eNOS−/− mice were originally generously donated from Dr. Paul Huang (Mass. General Hospital) and generated in our breeding colony at LSU-Health Sciences Center. eNOS−/− mice were utilized at 8-10 weeks of age.
The hepatic I/R protocol is depicted in FIG. 6A and has been described previously (Hines et al., Biochem Biophys Res Commun 284:972-976, 2001; Hines et al., Am J Physiol Gastrointest Liver Physiol 284:G536-545, 2001). Mice were anesthetized with the combination of ketamine (100 mg/kg) and zylazine (8 mg/kg) and a midline laparotomy was performed to expose the liver. Mice were then injected with heparin (100 μg/kg, i.p.) to prevent blood clotting. The left lateral and median lobes of the liver were rendered ischemic by completely clamping the hepatic artery and the portal vein using microaneurysm clamps. This experimental model results in a segmental (70%) hepatic ischemia. This method of partial ischemia prevents mesenteric venous congestion by allowing portal decompression throughout the right and caudate lobes of the liver. The liver was then repositioned in the peritoneal cavity in its original location for 45 minutes. The liver was kept moist using gauze soaked in 0.9% normal saline. In addition, body temperature was maintained at 37° C. using a heat lamp and monitoring body temperature with a rectal temperature probe. Sham surgeries were identical except that hepatic blood flow was not reduced with a microaneurysm clamp. The duration of hepatic ischemia was 45 minutes in all experiments, following which the microaneurysm clamps were removed. The duration of hepatic reperfusion was 5 hours in the studies of serum liver transaminase levels (i.e., AST or ALT) and 24 hours for the studies of liver histopathology (such as hepatocellular infarction).
Serum samples were analyzed for aspartate aminotransferase (AST) and alanine aminotransferase (ALT) using a spectrophotometric method (Sigma Chemical Co., St. Louis, Mo.) (Harada et al., Proc Natl Acad Sci USA 100:739-744, 2003). These enzymes are liver specific and are released from the liver during injury (Hines et al., Biochem Biophys Res Commun 284:972-976, 2001; Hines et al., Am J Physiol Gastrointest Liver Physiol 284:G536-545, 2001). […]

[3] = tested on: U46619-induced normoxic pulmonary hypertension; type: in vivo; details: 2 μg/kg/min i.v. for 30 minutes; before 24±1
Method: This is a simple, inexpensive, and widely available clinical nebulizer system, though other systems could be used.
Six additional lambs were studied in order to evaluate the effects of nitrite nebulization on normoxic pulmonary hypertension. Stable normoxic pulmonary hypertension was induced by an infusion of a stable endoperoxide analog of thromboxane (U46619-9,11-dideoxy-11α-epoxymethano-prostaglandin F2α, Cayman Chemicals, Ann Arbor, Mich.). The drug was dissolved in saline and was administered at a rate of 2 μg/kg/min into the femoral venous catheter for 30 minutes. Nitrite was nebulized for inhalation during the last 20 minutes of the infusion (FIG. 11).

## CNC(=N)NCCC[C@H](N)C(=O)O [L-NMMA, L-NG-monomethyl-arginine]
Forearm circulation
  reduction of forearm blood flow: approximately 30%

## [N]=O [NO gas, nitric oxide]
[1]; 20 ppm
  loss of the vasodilating effect after termination of delivery: in a matter of seconds
[1]; NO gas 20 ppm or nitrite aerosol for 20 minutes
  reduction (correction) of hypoxic-induced pulmonary hypertension: about 80%

## CC1(C)N([O])C(c2ccc(C(=O)[O-])cc2)=[N+]([O-])C1(C)C.[K+] [PTIO, 2-(4-Carboxyphenyl)-4,4,5,5-tetramethylimidazoline-1-oxyl-3-oxide potassium salt]
[2]; nitrite 24 μM + PTIO, full factorial design
  effect on nitrite protection (serum AST): completely inhibited protective effects of nitrite

## CCCCCC(O)/C=C/C1C2CC(CO2)C1C/C=C\CCCC(=O)O (stereo not drawn) [U46619, 9,11-dideoxy-11α-epoxymethano-prostaglandin F2α]
[3]
  pulmonary artery pressure during infusion: 51±4 mmHg

## O=[N+]([O-])[O-].[Na+] [sodium nitrate]
[2]; intraperitoneal during hepatic ischemia, 45 min ischemia, 5 h reperfusion, nitrite 1.2-480 nmoles, nitrate 48 nmoles
  serum elevations of liver transaminases AST and ALT: did not exert any protective effects
